Data reported in PubChem BioAssay (NCI).
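Cultured in 96-well plates, cells were exposed to test compound for 48 hours across five concentrations. Definition used: TGI = concentration required for complete inhibition of growth.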

Columns and labels:
Experiment in all cases: DTP human tumour cell line panel, 48 h
LXFL 529 NSCLC = test system: LXFL 529 NSCLC
SF-539 CNS = test system: SF-539 CNS
SNB-19 CNS = test system: SNB-19 CNS
HCC-2998 colon = test system: HCC-2998 colon
COLO 205 colon = test system: COLO 205 colon
M19-MEL melanoma = test system: M19-MEL melanoma
OVCAR-8 ovarian = test system: OVCAR-8 ovarian
NCI-H460 lung = test system: NCI-H460 lung
U251 CNS = test system: U251 CNS
MCF7 breast = test system: MCF7 breast

SMILES | TGI (LXFL 529 NSCLC) [µM] | TGI (SF-539 CNS) [µM] | TGI (SNB-19 CNS) [µM] | TGI (HCC-2998 colon) [µM] | TGI (COLO 205 colon) [µM] | TGI (M19-MEL melanoma) [µM] | TGI (OVCAR-8 ovarian) [µM] | TGI (NCI-H460 lung) [µM] | TGI (U251 CNS) [µM] | TGI (MCF7 breast) [µM]
Nc1ncnc2c1ncn2C1CC(OCc2ccccc2[N+](=O)[O-])C(CO)O1 (stereo unspecified) | > 50 | > 50 | > 50 | > 50 | 16.9 | 48.5 | > 50 | > 50 | > 50 | 
CC(=N\N)/C(C)=N/N=C(C)/C(C)=N/N=C(C)/C(C)=N/N |  | > 100 | > 100 | > 100 | > 100 |  | > 100 | > 100 | > 100 | > 100
CN(C)c1cccc(NC2=NCCO2)c1 |  | > 100 | > 100 | > 100 | 41.3 |  | > 100 | > 100 | > 100 | > 100
Fc1cccc(F)c1C1SCc2nc3ccc(Cl)cc3n21 (stereo unspecified) |  | > 100 | > 100 | > 100 | > 100 |  | > 100 | > 100 | > 100 | > 100
O=C1C(CN2CCOCC2)CCCC1CN1CCOCC1 (stereo unspecified) | 2.96 | 7.45 | 45.7 | 10.3 | 6.21 | 17.3 | 9.31 | 49 | 45 | 1.57
O=C(NNc1ccccc1)/C(=C/c1ccc2c(c1)OCO2)NC(=O)c1ccccc1 | > 100 | > 100 | > 100 | > 100 | > 100 |  | > 100 | > 100 | > 100 | 
N#C/C(=C/NC(=S)c1ccncc1)C(N)=O |  | > 100 | > 100 | > 100 | > 100 |  | > 100 | > 100 | > 100 | > 100
CNc1ncc(-c2nnnn2-c2ccccc2)c(CN(C)C)n1 |  | > 100 | > 100 | > 100 | > 100 |  | > 100 | > 100 | > 100 | > 100
O=P(O)(O)C1(P(=O)(O)O)CC1 | > 100 | > 100 | > 100 | > 100 | > 100 | > 100 | > 100 | > 100 | > 100 | 
COC(=O)c1ccc(Nc2nc3nc[nH]c3c(=O)[nH]2)cc1 |  | > 100 | > 100 | > 100 | > 100 |  | > 100 | > 100 | > 100 | > 100
Nc1c(Cl)ncnc1NCCCNc1ncnc(Cl)c1N | > 100 | > 100 | > 100 | > 100 | > 100 | > 100 | > 100 | > 100 | > 100 | 
Cc1ccc2c(c1)C(=O)C(C1OC(=O)c3ccccc31)C2 (stereo unspecified) |  | > 100 | > 100 | > 100 | > 100 |  | > 100 | > 100 | > 100 | > 100
